Among the data in patent US10905679B2, “TRPM8 receptor agonist compounds and uses thereof” (UNIVERSIDAD MIGUEL HERNANDEZ DE ELCHE, priority 2016, dated 2021) are activation, EC50 and tear secretion values, retold here.

SMILES strings stand for the structures.

T1 sequence (Q7Z2W7 whole entry): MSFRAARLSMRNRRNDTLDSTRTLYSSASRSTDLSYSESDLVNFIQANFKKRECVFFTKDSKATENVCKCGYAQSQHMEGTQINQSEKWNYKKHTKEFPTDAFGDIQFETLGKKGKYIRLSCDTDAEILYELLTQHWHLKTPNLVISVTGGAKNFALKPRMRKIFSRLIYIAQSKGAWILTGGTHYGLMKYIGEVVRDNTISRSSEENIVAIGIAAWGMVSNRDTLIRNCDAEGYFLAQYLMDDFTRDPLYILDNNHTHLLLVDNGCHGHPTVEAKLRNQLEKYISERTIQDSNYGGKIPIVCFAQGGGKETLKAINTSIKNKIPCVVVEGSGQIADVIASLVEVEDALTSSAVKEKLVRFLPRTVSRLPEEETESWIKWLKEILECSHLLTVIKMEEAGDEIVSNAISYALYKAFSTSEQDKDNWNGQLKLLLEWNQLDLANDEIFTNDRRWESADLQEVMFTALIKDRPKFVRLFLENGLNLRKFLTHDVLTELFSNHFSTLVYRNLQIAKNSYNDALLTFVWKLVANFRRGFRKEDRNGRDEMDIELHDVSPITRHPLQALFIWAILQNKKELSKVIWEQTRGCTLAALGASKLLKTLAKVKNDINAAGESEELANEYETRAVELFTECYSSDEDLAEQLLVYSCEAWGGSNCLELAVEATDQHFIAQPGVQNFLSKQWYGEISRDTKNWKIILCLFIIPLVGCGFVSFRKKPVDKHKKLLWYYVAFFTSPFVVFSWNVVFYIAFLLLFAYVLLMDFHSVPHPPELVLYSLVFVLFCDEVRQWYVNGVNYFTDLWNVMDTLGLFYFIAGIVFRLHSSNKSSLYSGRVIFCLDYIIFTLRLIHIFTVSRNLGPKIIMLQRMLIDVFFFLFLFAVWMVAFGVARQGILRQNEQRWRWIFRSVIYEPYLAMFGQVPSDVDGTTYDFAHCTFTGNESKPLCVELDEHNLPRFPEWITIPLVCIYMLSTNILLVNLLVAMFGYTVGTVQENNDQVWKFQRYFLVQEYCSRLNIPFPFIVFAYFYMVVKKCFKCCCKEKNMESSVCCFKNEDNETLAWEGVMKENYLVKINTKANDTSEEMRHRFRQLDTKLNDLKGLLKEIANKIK

One assay concerns the target T1, TRPM8 (Homo sapiens, UniProt Q7Z2W7).
T1 construct: expressed in transfected cells
Description: Ca2+ fluorimetry assay in CHO cell line stably expressing TRPM8. It is filed as cell-based. The following applies: 10 μM; CHO cells stably expressing TRPM8; Fluo-4NW fluorescence. How it is done:
The cells were cultured in monolayer in EMEM medium (Earle's minimum essential medium with Earle's salts, Invitrogen) supplemented with 10% foetal bovine serum (FBS), 2 mM L-glutamine, 1% penicillin-streptomycin solution and […] of the Geneticin antibiotic (Sigma) and kept at 37° C. in a humidified atmosphere with 5% of CO2. Ca^2+ fluorimetry assays were carried out in order to determine the efficacy of the compounds on the TRPM8 channels. The cells were seeded in 96-well plates with a density of 25,000 cells per well. Three days after seeding, the medium was removed and 100 μl of the Fluo-4NW fluorescent probe from Invitrogen was added with a concentration of 5 μM in the presence of 0.02% pluronic acid; after 60 minutes of incubation at 37° C. in a humidified atmosphere with 5% of CO2, the fluorescence was measured in a microplate reader (POLARstar Omega) with a configuration of 485 nm for the excitation and 520 nm for the emission, during 20 cycles. […] In the wells that were used as negative controls, 1 μl of AMTB [N-(3-aminopropyl)-2-[(3-methylphenyl)methoxy]-N-(2-thienylmethyl)benzamide] was added to obtain a final concentration of 10 μM, to block the TRPM8 channels.
The amplitudes of the Ca^2+ increases, caused by the stimulation of the cells with the compounds, were measured by subtracting the basal fluorescence signal (mean intensity obtained before adding the compound) from the fluorescence peak obtained after applying the compounds. The obtained results were adjusted to a sigmoid function using the software suite of the GraphPad Prism computer program.
On to `COc1ccc(C(=O)c2cn([C@@H]3C[C@H](C)CC[C@H]3C(C)C)nn2)cc1OC` [TZM-11, (3,4-dimethoxyphenyl) (1-((1R,2S,5R)-2-isopropyl-5-methylcyclohexyl)-1H-1,2,3-triazole-4-yl)methanone], for which the activation at 10 µM was found to be 53.5 ± 13.4%.

Regarding `COc1ccc(C(=O)c2cn([C@@H]3C[C@H](C)CC[C@H]3C(C)C)nn2)cc1` [TZM-18, (1-((1R,2S,5R)-2-isopropyl-5-methylcyclohexyl)-1H-1,2,3-triazole-4-yl) (4-methoxyphenyl)methanone], the activation at 10 µM turned out to be 44.6 ± 5.62%.

In the case of `CC(C)[C@@H]1CC[C@@H](C)C[C@H]1n1cc(C(=O)c2ccc(-c3ccccc3)cc2)nn1` [TZM-17, [1,1′-biphenyl]-4-yl(1-((1R,2S,5R)-2-isopropyl-5-methylcyclohexyl)-1H-1,2,3-triazole-4-yl)methanone], the activation at 10 µM came out at 42 ± 4.53%.

Regarding `CC(C)[C@@H]1CC[C@@H](C)C[C@H]1n1cc(C(=O)c2ccc(Oc3ccccc3)cc2)nn1` [TZM-13, (1-((1R,2S,5R)-2-isopropyl-5-methylcyclohexyl)-1H-1,2,3-triazole-4-yl) (4-phenoxyphenyl)methanone], the activation at 10 µM was 46.5 ± 6.57%.

Compound `COc1ccc(C(=O)c2cn([C@@H]3C[C@H](C)CC[C@H]3C(C)C)nn2)c(OC)c1` [TZM-14, (2,4-dimethoxyphenyl) (1-((1R,2S,5R)-2-isopropyl-5-methylcyclohexyl)-1H-1,2,3-triazole-4-yl)methanone] returned an activation at 10 µM of 43.8 ± 4.22%.

On to `COc1cccc(-c2cn([C@@H]3C[C@H](C)CC[C@H]3C(C)C)nn2)c1` [TZM-24, 1-((1R,2S,5R)-2-isopropyl-5-methylcyclohexyl)-4-(3-methoxyphenyl)-1H-1,2,3-triazole], for which the activation at 10 µM was found to be 37.8 ± 5.49%.

Consider `CC(C)[C@@H]1CC[C@@H](C)C[C@H]1n1cc(-c2ccccc2)nn1` [TZM-3, 1-((1R,2S,5R)-2-isopropyl-5-methylcyclohexyl)-4-phenyl-1H-1,2,3-triazole], for which the activation at 10 µM turned out to be 51.6 ± 14%.

The compound `CC(C)[C@@H]1CC[C@@H](C)C[C@H]1n1cc(-c2cccc3ccccc23)nn1` [TZM-8, 1-((1R,2S,5R)-2-isopropyl-5-methylcyclohexyl)-4-(naphthalene-1-yl)-1H-1,2,3-triazole] registered an activation at 10 µM of 56.5 ± 29.7%.

For the compound `CC(C)[C@@H]1CC[C@@H](C)C[C@H]1n1cc(-c2ccc(-c3ccccc3)cc2)nn1` [TZM-5, 4-([1,1′-biphenyl]-4-yl)-1-((1R,2S,5R)-2-isopropyl-5-methylcyclohexyl)-1H-1,2,3-triazole], the activation at 10 µM is 50.1 ± 8.25%.

On to `COc1ccc(C(O)c2cn([C@@H]3C[C@H](C)CC[C@H]3C(C)C)nn2)cc1OC` (stereo partly drawn) [TZM-26, (3,4-dimethoxyphenyl) (1-((1R,2S,5R)-2-isopropyl-5-methylcyclohexyl)-1H-1,2,3-triazole-4-yl)methanol], for which the activation at 10 µM turned out to be 50.9 ± 17.2%.

In the case of `CC(C)[C@@H]1CC[C@@H](C)C[C@H]1n1cc(-c2ccccn2)nn1` [TZM-9, 2-(1-((1R,2S,5R)-2-isopropyl-5-methylcyclohexyl)-1H-1,2,3-triazole-4-yl)pyridine], the activation at 10 µM was 59.1 ± 30.4%.

The compound `CC1CC[C@@H](C(C)C)[C@H](n2cc(CCCCCCCCC(=O)O)nn2)C1` (stereo in doubt) [TZM-21, 9-(1-((1R,2S,5S)-2-isopropyl-5-methylcyclohexyl)-1H-1,2,3-triazole-4-yl)-nonanoic acid] registered an activation at 10 µM of 54 ± 14.4%.

`CC(C)[C@@H]1CC[C@@H](C)C[C@H]1n1cc(CCc2ccccc2)nn1` [TZM-10, 1-((1R,2S,5R)-2-isopropyl-5-methylcyclohexyl)-4-phenethyl-1H-1,2,3-triazole]: the activation at 10 µM was found to be 45 ± 23.4%.

As to `CC(C)[C@@H]1CC[C@@H](C)C[C@H]1n1cc(C(=O)c2ccc(Cl)cc2)nn1` [TZM-20, (4-chlorophenyl) (1-((1R,2S,5R)-2-isopropyl-5-methylcyclohexyl)-1H-1,2,3-triazole-4-yl)methanone], the activation at 10 µM is 66.9 ± 17.5%.

On to `COc1ccccc1C(=O)c1cn([C@@H]2C[C@H](C)CC[C@H]2C(C)C)nn1` [TZM-15, (1-((1R,2S,5R)-2-isopropyl-5-methylcyclohexyl)-1H-1,2,3-triazole-4-yl) (2-methoxyphenyl)methanone], for which the activation at 10 µM came to 50.5 ± 4.83%.

Compound `COc1cc(OC)cc(C(=O)c2cn([C@@H]3C[C@H](C)CC[C@H]3C(C)C)nn2)c1` [TZM-16, (3,5-dimethoxyphenyl) (1-((1R,2S,5R)-2-isopropyl-5-methylcyclohexyl)-1H-1,2,3-triazole-4-yl)methanone] gave an activation at 10 µM of 44.5 ± 5.59%.

`CC1CC[C@@H](C(C)C)[C@H](n2cc(CCCCC#N)nn2)C1` (stereo in doubt) [TZM-22, 5-(1-((1R,2S,5S)-2-isopropyl-5-methylcyclohexyl)-1H-1,2,3-triazole-4-yl)pentanenitrile] showed an activation at 10 µM of 57.3 ± 15.2%.

In turn, `COCc1cn([C@@H]2C[C@H](C)CC[C@H]2C(C)C)nn1` [TZM-25, 1-((1R,2S,5R)-2-isopropyl-5-methylcyclohexyl)-4-(methoxymethyl)-1H-1,2,3-triazole] showed an activation at 10 µM of 45.1 ± 18.6%.

As to `CC(C)[C@@H]1CC[C@@H](C)C[C@H]1n1cc(-c2cccc(O)c2)nn1` [TZM-23, 3-[1-((1R,2S,5R)-2-isopropyl-5-methylcyclohexyl)-1H-1,2,3-triazole-4-yl]phenol], the activation at 10 µM is 51.2 ± 16.1%.

As for `CC(C)[C@@H]1CC[C@@H](C)C[C@H]1n1cc(CO)nn1` [TZM-1], the activation at 10 µM stood at 45.5 ± 11.2%.

`CC1CCC(C(C)C)C(O)C1` (stereo not shown) [Menthol, reference compound] showed an activation at 10 µM of 101 ± 1.66%.

`COc1ccc(-c2cn([C@@H]3C[C@H](C)CC[C@H]3C(C)C)nn2)cc1` [TZM-4, 1-((1R,2S,5R)-2-isopropyl-5-methylcyclohexyl)-4-(4-methoxyphenyl)-1H-1,2,3-triazole] showed an activation at 10 µM of 85.1 ± 33%.

Compound `CC(C)[C@@H]1CC[C@@H](C)C[C@H]1n1cc(C2(O)CCCCC2)nn1` [TZM-6, 1-(1-((1R,2S,5R)-2-isopropyl-5-methylcyclohexyl)-1H-1,2,3-triazole-4-yl)cyclohexan-1-ol] returned an activation at 10 µM of 45.1 ± 16.9%.

Take `CC(C)[C@@H]1CC[C@@H](C)C[C@H]1n1cc(-c2ccc(Oc3ccccc3)cc2)nn1` [TZM-2, 1-((1R,2S,5R)-2-isopropyl-5-methylcyclohexyl)-4-(4-phenoxyphenyl)-1H-1,2,3-triazole]: the activation at 10 µM stood at 55.6 ± 26.2%.

Compound `CC(C)[C@@H]1CC[C@@H](C)C[C@H]1n1cc(C(=O)c2cccc(F)c2)nn1` [TZM-12, (3-fluorophenyl) (1-((1R,2S,5R)-2-isopropyl-5-methylcyclohexyl)-1H-1,2,3-triazole-4-yl)methanone] yielded an activation at 10 µM of 57.9 ± 8.57%.

Consider `COc1cccc(C(=O)c2cn([C@@H]3C[C@H](C)CC[C@H]3C(C)C)nn2)c1` [TZM-19, (1-((1R,2S,5R)-2-isopropyl-5-methylcyclohexyl)-1H-1,2,3-triazole-4-yl) (3-methoxyphenyl)methanone], for which the activation at 10 µM amounted to 40.8 ± 9.01%.

The same assay, now with this note: CHO cells stably expressing TRPM8; concentrations 0.1, 1, 10 and 100 μM; sigmoid fit.
`COc1ccc(C(=O)c2cn([C@@H]3C[C@H](C)CC[C@H]3C(C)C)nn2)cc1OC` [TZM-11, (3,4-dimethoxyphenyl) (1-((1R,2S,5R)-2-isopropyl-5-methylcyclohexyl)-1H-1,2,3-triazole-4-yl)methanone]: it took 9.84 ± 3.29 µM to reach a half-maximal effect (EC50).

`CC(C)[C@@H]1CC[C@@H](C)C[C@H]1n1cc(-c2ccccn2)nn1` [TZM-9, 2-(1-((1R,2S,5R)-2-isopropyl-5-methylcyclohexyl)-1H-1,2,3-triazole-4-yl)pyridine] displayed an EC50 of 6.23 ± 3.18 µM.

`CC(C)[C@@H]1CC[C@@H](C)C[C@H]1n1cc(CCc2ccccc2)nn1` [TZM-10, 1-((1R,2S,5R)-2-isopropyl-5-methylcyclohexyl)-4-phenethyl-1H-1,2,3-triazole] returned an EC50 of 3.84 ± 2.36 µM.

For the compound `COc1ccc(-c2cn([C@@H]3C[C@H](C)CC[C@H]3C(C)C)nn2)cc1` [TZM-4, 1-((1R,2S,5R)-2-isopropyl-5-methylcyclohexyl)-4-(4-methoxyphenyl)-1H-1,2,3-triazole], the EC50 came to 3.47 ± 1.34 µM.

The next assay deals with guinea pig. The assay is described as follows: In vivo tear secretion measured using phenol red threads after ocular instillation. To be noted: instilled ocularly at 200 μM, phenol red thread 30 seconds. From the text:
The in vivo activity of the selected TRPM8 activating compounds (TZM-7) has been assessed in an animal model following the protocol described in Acosta M C et al., Invest Ophthalmol Vis Sci 2014 (Corneal sensory nerve activity in an experimental model of UV keratitis. Acosta M et al., Invest Ophthalmol Vis Sci May 1; 55(6):3403-12). […] Tear secretion can be measured using phenol red threads (Zone-Quick, Menicon, Nagoya, Japan) that are applied to the nasal edge of the lower eyelid for 30 seconds (after that time, the distance of the red-dyed thread is measured in mm).
In the case of `CC1CCC(C(C)C)C(O)C1` (stereo not shown) [Menthol, reference compound], the tear secretion entry is “produces an increase in tear secretion”.
